Data reported in US11479556B1, “Bifunctional compounds for degrading BTK via ubiquitin proteosome pathway” (NURIX THERAPEUTICS, INC., priority 2018, dated 2022).

Target: T1, BTK (Homo sapiens, UniProt Q06187)
T1 construct: endogenous in cells; host or cells: TMD8 cells
Assay: Cellular BTK HTRF assay (BTK degradation) in TMD8 cells
Type: cell-based
Conditions: four hours incubation, Total-BTK HTRF relative to DMSO-treated cells
Experimental: Example 66: BTK Degradation Assay
TMD8 cells were obtained from Tokyo Medical and Dental University and were grown in alpha-MEM (Fisher 12571063) supplemented with 10% heat-inactivated FBS (Corning Premium Fetal Bovine Serum from Fisher, MT35015CV).
Compounds of the present invention were added to 50,000 TMD8 cells in round-bottom 96 well plates with a final DMSO concentration of […] and were incubated at 37° C. 5% CO2 for four hours. BTK levels were determined using Cisbio Total-BTK HTRF ([…] Time-Resolved Fluorescence) kit (63ADK064PEG) according to manufacturer's protocol. Briefly, cells were incubated in 1× supplied lysis buffer for 30 minutes. In an opaque white low volume 96 well plate (Cisbio, 66PL96005), cell lysate was combined with two different specific BTK antibodies, one conjugated with Eu^3+-Cryptate FRET donor and one conjugated with d2 FRET acceptor. Assay controls include wells containing cell lysate with only the Eu^3+-Cryptate FRET donor antibody and wells containing both HTRF antibodies and lysis buffer without cells or control lysate provided by Cisbio. HTRF ratio was calculated as (acceptor signal at 665 nm/donor signal at 620 nm)×10^4. Background HTRF levels were determined from the control well containing the donor, but no acceptor, antibody. Background HTRF levels were subtracted from all samples. Readouts were reported as HTRF levels relative to HTRF levels of DMSO-treated cells. Four-parameter non-linear regressions were performed in GraphPad Prism 7.02 to obtain DC50 values. DC50 values are provided in Table 3, wherein A<5.0 nM, 5.0 nM≤B≤15 nM, and 15 nM<C.

T1 sequence (Q06187 whole entry): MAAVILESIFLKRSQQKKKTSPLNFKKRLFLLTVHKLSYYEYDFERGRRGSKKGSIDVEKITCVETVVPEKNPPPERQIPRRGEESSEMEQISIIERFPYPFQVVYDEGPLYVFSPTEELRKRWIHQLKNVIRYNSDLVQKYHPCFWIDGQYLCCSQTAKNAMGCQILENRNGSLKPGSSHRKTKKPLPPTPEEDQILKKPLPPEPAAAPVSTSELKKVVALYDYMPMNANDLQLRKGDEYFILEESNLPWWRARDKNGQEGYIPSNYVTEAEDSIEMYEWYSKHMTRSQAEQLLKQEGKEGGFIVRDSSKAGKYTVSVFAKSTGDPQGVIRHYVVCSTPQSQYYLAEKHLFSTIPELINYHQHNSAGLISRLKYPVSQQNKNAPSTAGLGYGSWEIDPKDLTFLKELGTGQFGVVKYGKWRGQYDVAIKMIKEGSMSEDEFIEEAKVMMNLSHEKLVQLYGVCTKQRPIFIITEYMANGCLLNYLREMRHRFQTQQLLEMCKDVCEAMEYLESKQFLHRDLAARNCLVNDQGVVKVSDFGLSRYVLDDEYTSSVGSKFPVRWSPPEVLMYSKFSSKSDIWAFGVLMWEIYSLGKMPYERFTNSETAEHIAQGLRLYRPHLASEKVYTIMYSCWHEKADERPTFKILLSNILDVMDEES

Row | SMILES | DC50
1 | CN1CCN([C@@H]2CCCN(c3cnc(C(N)=O)c(Nc4ccc(C(=O)NCCOCCOCCOCCCc5cccc6c5CN(C5CCC(=O)NC5=O)C6=O)cc4)n3)C2)C1=O (some centres unmarked) [Compound 2] | > 15 nM
2 | CN1CCN([C@@H]2CCCN(c3cnc(C(N)=O)c(Nc4ccc(C(=O)NCCOCCOCCOCCNc5cccc6c5C(=O)N(C5CCC(=O)NC5=O)C6=O)cc4)n3)C2)C1=O (some centres unmarked) [Compound 3] | > 15 nM
3 | CN1CCN([C@@H]2CCCN(c3cnc(C(N)=O)c(Nc4ccc(OCCCNC(=O)CCCN5CCN(c6ccc7c(c6)C(=O)N(C6CCC(=O)NC6=O)C7=O)CC5)cc4)n3)C2)C1=O (some centres unmarked) [Compound 4] | > 15 nM
4 | CN1CCN([C@@H]2CCCN(c3cnc(C(N)=O)c(Nc4ccc(OCCCNC(=O)[C@H]5C[C@@H](OCCCc6cccc7c6C(=O)N(C6CCC(=O)NC6=O)C7=O)C5)cc4)n3)C2)C1=O (some centres unmarked) [Compound 5] | > 15 nM
5 | CN1CCN([C@@H]2CCCN(c3cnc(C(N)=O)c(Nc4ccc(OCCCNC(=O)CCCc5cccc6c5CN(C5CCC(=O)NC5=O)C6=O)cc4)n3)C2)C1=O (some centres unmarked) [Compound 6] | > 15 nM
6 | CN1CCN([C@@H]2CCCN(c3cnc(C(N)=O)c(Nc4ccc(C5(C)CCN(C(=O)CCCc6nnc(Nc7cccc8c7CN(C7CCC(=O)NC7=O)C8=O)o6)CC5)cc4)n3)C2)C1=O (some centres unmarked) [Compound 7] | > 15 nM
7 | CN1CCN([C@@H]2CCCN(c3cnc(C(N)=O)c(Nc4ccc(C(=O)NCCCCNc5cccc6c5C(=O)N(C5CCC(=O)NC5=O)C6=O)cc4)n3)C2)C1=O (some centres unmarked) [Compound 8] | 5 to 15 nM
8 | CN1CCN([C@@H]2CCCN(c3cnc(C(N)=O)c(Nc4ccc(C(=O)NCCOCCc5cccc6c5CN(C5CCC(=O)NC5=O)C6=O)cc4)n3)C2)C1=O (some centres unmarked) [Compound 9] | > 15 nM
9 | CN1CCN([C@@H]2CCCN(c3cnc(C(N)=O)c(Nc4ccc(C5(C)CCN(C(=O)CCOCCCc6ccc7c(c6)C(=O)N(C6CCC(=O)NC6=O)C7=O)CC5)cc4)n3)C2)C1=O (some centres unmarked) [Compound 10] | 5 to 15 nM
10 | CN1CCN([C@@H]2CCCN(c3cnc(C(N)=O)c(Nc4ccc(C5(C)CCN(C(=O)CCCN6CCN(c7ccc8c(c7)C(=O)N(C7CCC(=O)NC7=O)C8=O)CC6)CC5)cc4)n3)C2)C1=O (some centres unmarked) [Compound 11] | < 5 nM
11 | CN1CCN([C@@H]2CCCN(c3cnc(C(N)=O)c(Nc4ccc(N5CCN(C(=O)CN6CCN(CCc7cccc8c7CN(C7CCC(=O)NC7=O)C8=O)CC6)CC5)cc4)n3)C2)C1=O (some centres unmarked) [Compound 12] | 5 to 15 nM
12 | CN1CCN([C@@H]2CCCN(c3cnc(C(N)=O)c(Nc4ccc(C5(C)CCN(C(=O)CN6CCN(CCc7cccc8c7CN(C7CCC(=O)NC7=O)C8=O)CC6)CC5)cc4)n3)C2)C1=O (some centres unmarked) [Compound 13] | 5 to 15 nM
13 | CN1CCN([C@@H]2CCCN(c3cnc(C(N)=O)c(Nc4ccc(N5CCN(CCCc6cccc7c6CN(C6CCC(=O)NC6=O)C7=O)CC5)cc4)n3)C2)C1=O (some centres unmarked) [Compound 15] | < 5 nM
14 | CN1CCN([C@@H]2CCCN(c3cnc(C(N)=O)c(Nc4ccc(C5(C)CCN(CCCc6cccc7c6CN(C6CCC(=O)NC6=O)C7=O)CC5)cc4)n3)C2)C1=O (some centres unmarked) [Compound 16] | 5 to 15 nM
15 | CN1CCN([C@@H]2CCCN(c3cnc(C(N)=O)c(Nc4ccc(C5(C)CCN(CCOCCCc6cccc7c6C(=O)N(C6CCC(=O)NC6=O)C7=O)CC5)cc4)n3)C2)C1=O (some centres unmarked) [Compound 18] | 5 to 15 nM
16 | CN1CCN([C@@H]2CCCN(c3cnc(C(N)=O)c(Nc4ccc(N5CCN(C(=O)CCOCCNc6cccc7c6C(=O)N(C6CCC(=O)NC6=O)C7=O)CC5)cc4)n3)C2)C1=O (some centres unmarked) [Compound 19] | 5 to 15 nM
17 | CN1CCN([C@@H]2CCCN(c3cnc(C(N)=O)c(Nc4ccc(C5(C)CCN(C(=O)CN6CCN(CCCc7cccc8c7CN(C7CCC(=O)NC7=O)C8=O)CC6)CC5)cc4)n3)C2)C1=O (some centres unmarked) [Compound 20] | < 5 nM
18 | CN1CCN([C@@H]2CCCN(c3cnc(C(N)=O)c(Nc4ccc(C5(C)CCN(CCCCc6cccc7c6CN(C6CCC(=O)NC6=O)C7=O)CC5)cc4)n3)C2)C1=O (some centres unmarked) [Compound 21] | 5 to 15 nM
19 | CN1CCN([C@@H]2CCCN(c3cnc(C(N)=O)c(Nc4ccc(C5(C)CCN(C(=O)CN6CCN(CCCc7cccc8c7C(=O)N(C7CCC(=O)NC7=O)C8=O)CC6)CC5)cc4)n3)C2)C1=O (some centres unmarked) [Compound 22] | 5 to 15 nM
20 | CN1CCN([C@@H]2CCCN(c3cnc(C(N)=O)c(Nc4ccc(C5CCN(C(=O)CCCCc6cccc7c6CN(C6CCC(=O)NC6=O)C7=O)CC5)cc4)n3)C2)C1=O (some centres unmarked) [Compound 23] | 5 to 15 nM
21 | CN1CCN([C@@H]2CCCN(c3cnc(C(N)=O)c(Nc4ccc(C5CCN(C(=O)CCOCCOCCOCCNc6cccc7c6C(=O)N(C6CCC(=O)NC6=O)C7=O)CC5)cc4)n3)C2)C1=O (some centres unmarked) [Compound 24] | 5 to 15 nM

Row | SMILES | DC50
22 | CN1CCN([C@@H]2CCCN(c3cnc(C(N)=O)c(Nc4ccc(C5(C)CCN(C(=O)CCCCc6cccc7c6CN(C6CCC(=O)NC6=O)C7=O)CC5)cc4)n3)C2)C1=O (some centres unmarked) [Compound 26] | 5 to 15 nM
23 | CN1CCN([C@@H]2CCCN(c3cnc(C(N)=O)c(Nc4ccc(C5(C)CCN(C(=O)CCOCCOCCOCCNc6cccc7c6C(=O)N(C6CCC(=O)NC6=O)C7=O)CC5)cc4)n3)C2)C1=O (some centres unmarked) [Compound 27] | 5 to 15 nM
24 | CN1CCN([C@@H]2CCCN(c3cnc(C(N)=O)c(Nc4ccc(C5(C)CCN(C(=O)CCOCCNc6cccc7c6C(=O)N(C6CCC(=O)NC6=O)C7=O)CC5)cc4)n3)C2)C1=O (some centres unmarked) [Compound 28] | 5 to 15 nM
25 | CN1CCN([C@@H]2CCCN(c3cnc(C(N)=O)c(Nc4ccc(C5CCN(C[C@@H]6CCCN(c7ccc8c(c7)C(=O)N(C7CCC(=O)NC7=O)C8=O)C6)CC5)cc4)n3)C2)C1=O (stereo partly drawn) [Compound 32, 3-((4-(1-(((3S)-1-(2-(2,6-dioxopiperidin-3-yl)-1,3-dioxoisoindolin-5-yl)piperidin-3-yl)methyl)piperidin-4-yl)phenyl)amino)-5-((R)-3-(3-methyl-2-oxoimidazolidin-1-yl)piperidin-1-yl)pyrazine-2-carboxamide] | < 5 nM
26 | CN1CCN([C@@H]2CCCN(c3cnc(C(N)=O)c(Nc4ccc(N5CC6(CN(CCCc7cccc8c7CN(C7CCC(=O)NC7=O)C8=O)C6)C5)cc4)n3)C2)C1=O (some centres unmarked) [Compound 33] | < 5 nM
27 | CN1CCN([C@@H]2CCCN(c3cnc(C(N)=O)c(Nc4ccc(C5CN(C[C@H]6CCN(c7ccc8c(c7)C(=O)N(C7CCC(=O)NC7=O)C8=O)C6)C5)cc4)n3)C2)C1=O (some centres unmarked) [Compound 35] | < 5 nM
28 | CN1CCN([C@@H]2CCCN(c3cnc(C(N)=O)c(Nc4ccc(C5CN(CCCCc6cccc7c6CN(C6CCC(=O)NC6=O)C7=O)C5)cc4)n3)C2)C1=O (some centres unmarked) [Compound 36] | 5 to 15 nM
29 | CN1CCN([C@@H]2CCCN(c3cnc(C(N)=O)c(Nc4ccc(C5CCN(C[C@@H]6[C@H]7CN(c8ccc9c(c8)C(=O)N(C8CCC(=O)NC8=O)C9=O)C[C@@H]67)CC5)cc4)n3)C2)C1=O (some centres unmarked) [Compound 39] | < 5 nM
30 | CN1CCN([C@@H]2CCCN(c3cnc(C(N)=O)c(Nc4ccc(N5CCN(CCC6CCN(c7ccc8c(c7)C(=O)N(C7CCC(=O)NC7=O)C8=O)CC6)CC5)cc4)n3)C2)C1=O (some centres unmarked) [Compound 40] | < 5 nM
31 | CN1CCN([C@@H]2CCCN(c3cnc(C(N)=O)c(Nc4ccc(C5CCN(CCC6CCN(c7ccc8c(c7)C(=O)N(C7CCC(=O)NC7=O)C8=O)CC6)CC5)cc4)n3)C2)C1=O (some centres unmarked) [Compound 41] | < 5 nM
32 | CN1CCN([C@@H]2CCCN(c3cnc(C(N)=O)c(Nc4ccc(N5CCN(C[C@H]6CCN(c7ccc8c(c7)C(=O)N(C7CCC(=O)NC7=O)C8=O)C6)CC5)cc4)n3)C2)C1=O (some centres unmarked) [Compound 42] | < 5 nM
33 | CN1CCN([C@@H]2CCCN(c3cnc(C(N)=O)c(Nc4ccc(N5CCN(CCC6CN(c7ccc8c(c7)C(=O)N(C7CCC(=O)NC7=O)C8=O)C6)CC5)cc4)n3)C2)C1=O (some centres unmarked) [Compound 43] | < 5 nM
34 | CN1CCN([C@@H]2CCCN(c3cnc(C(N)=O)c(Nc4ccc(C5CCN(CCC6CN(c7ccc8c(c7)C(=O)N(C7CCC(=O)NC7=O)C8=O)C6)CC5)cc4)n3)C2)C1=O (some centres unmarked) [Compound 45] | < 5 nM
35 | CN1CCN([C@@H]2CCCN(c3cnc(C(N)=O)c(Nc4ccc(N5CCN(C[C@@H]6CCCN(c7ccc8c(c7)C(=O)N(C7CCC(=O)NC7=O)C8=O)C6)CC5)cc4)n3)C2)C1=O (some centres unmarked) [Compound 46] | < 5 nM
36 | CN1CCN([C@@H]2CCCN(c3cnc(C(N)=O)c(Nc4ccc(C5CCN(c6ccc7c(c6)C(=O)N(C6CCC(=O)NC6=O)C7=O)CC5)cc4)n3)C2)C1=O (some centres unmarked) [Compound 47] | < 5 nM
37 | CN1CCN([C@@H]2CCCN(c3cnc(C(N)=O)c(Nc4ccc(N5CCN(C[C@H]6CCCN(c7ccc8c(c7)C(=O)N(C7CCC(=O)NC7=O)C8=O)C6)CC5)cc4)n3)C2)C1=O (some centres unmarked) [Compound 48] | < 5 nM
38 | CN1CCN([C@@H]2CCCN(c3cnc(C(N)=O)c(Nc4ccc(N5CCN(CC6CCN(c7ccc8c(c7)C(=O)N(C7CCC(=O)NC7=O)C8=O)CC6)CC5)cc4)n3)C2)C1=O (some centres unmarked) [Compound 49] | < 5 nM
39 | CN1CCN([C@@H]2CCCN(c3cnc(C(N)=O)c(Nc4ccc(C5CCN(C[C@H]6CCCN(c7ccc8c(c7)C(=O)N(C7CCC(=O)NC7=O)C8=O)C6)CC5)cc4)n3)C2)C1=O (some centres unmarked) [Compound 50] | < 5 nM
40 | CN1CCN([C@@H]2CCCN(c3cnc(C(N)=O)c(Nc4ccc(C5CCN(C[C@@H]6CCN(c7ccc8c(c7)C(=O)N(C7CCC(=O)NC7=O)C8=O)C6)CC5)cc4)n3)C2)C1=O (some centres unmarked) [Compound 52] | < 5 nM
41 | CN1CCN([C@@H]2CCCN(c3cnc(C(N)=O)c(Nc4ccc(C5CCN(CC6CN(c7ccc8c(c7)C(=O)N(C7CCC(=O)NC7=O)C8=O)C6)CC5)cc4)n3)C2)C1=O (some centres unmarked) [Compound 54] | < 5 nM
